Where “and” joins values, the source holds several entries; their conditions need not be identical. Equal values may be shown once. Toxic doses and inconclusive results are not listed. The calls were made as follows: active = survival T/C of 150% or more; inactive = T/C below 125% in these data.
System: P388 leukemia ip, CD2F1 mice, survival T/C
Experiment: NCI In Vivo Anticancer Drug Screen. Data for tumor model P388 Leukemia (intraperitoneal) in CD2F1 (CDF1) mice
Settings: endpoint: median survival time, higher = longer survival
In short: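 Mice carrying the transplanted tumor received test compound or vehicle. Survival was recorded in each group, and the value is the treated-group measurement divided by that of the vehicle-treated control group.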

[1] = dose: 50.0 mg/kg/injection, schedule: Q01DX009 (ip), vehicle: saline
[2] = dose: 100.0 mg/kg/injection, schedule: Q01DX009 (ip), vehicle: saline
[3] = dose: 200.0 mg/kg/injection, schedule: Q01DX009 (ip), vehicle: saline
[4] = dose: 100.0 mg/kg/injection, schedule: Q01DX009 (ip), vehicle: saline with Tween-80
[5] = dose: 200.0 mg/kg/injection, schedule: Q01DX009 (ip), vehicle: saline with Tween-80
[6] = dose: 50.0 mg/kg/injection, schedule: Q01DX005 (ip), vehicle: Klucel (hydroxypropylcellulose) (HPC)
[7] = dose: 100.0 mg/kg/injection, schedule: Q01DX005 (ip), vehicle: Klucel (hydroxypropylcellulose) (HPC)
[8] = dose: 50.0 mg/kg/injection, schedule: Q01DX009 (ip), vehicle: Klucel (hydroxypropylcellulose) (HPC)
[9] = dose: 100.0 mg/kg/injection, schedule: Q01DX009 (ip), vehicle: Klucel (hydroxypropylcellulose) (HPC)
[10] = dose: 200.0 mg/kg/injection, schedule: Q01DX009 (ip), vehicle: Klucel (hydroxypropylcellulose) (HPC)
[11] = dose: 6.25 mg/kg/injection, schedule: Q01DX009 (ip), vehicle: Klucel (hydroxypropylcellulose) (HPC)
[12] = dose: 12.5 mg/kg/injection, schedule: Q01DX009 (ip), vehicle: Klucel (hydroxypropylcellulose) (HPC)
[13] = dose: 25.0 mg/kg/injection, schedule: Q01DX009 (ip), vehicle: Klucel (hydroxypropylcellulose) (HPC)
[14] = dose: 60.0 mg/kg/injection, schedule: Q01DX005 (ip), vehicle: saline with Tween-80
[15] = dose: 240.0 mg/kg/injection, schedule: Q01DX005 (ip), vehicle: saline with Tween-80
[16] = dose: 15.0 mg/kg/injection, schedule: Q01DX005 (ip), vehicle: saline with Tween-80
[17] = dose: 30.0 mg/kg/injection, schedule: Q01DX005 (ip), vehicle: saline with Tween-80
[18] = dose: 100.0 mg/kg/injection, schedule: Q04DX002 (ip), vehicle: saline with Tween-80
[19] = dose: 200.0 mg/kg/injection, schedule: Q04DX002 (ip), vehicle: saline with Tween-80
[20] = dose: 400.0 mg/kg/injection, schedule: Q04DX002 (ip), vehicle: saline with Tween-80
[21] = dose: 50.0 mg/kg/injection, schedule: Q01DX005 (ip), vehicle: saline with Tween-80
[22] = dose: 100.0 mg/kg/injection, schedule: Q01DX005 (ip), vehicle: saline with Tween-80
[23] = dose: 200.0 mg/kg/injection, schedule: Q01DX005 (ip), vehicle: saline with Tween-80
[24] = dose: 100.0 mg/kg/injection, schedule: Q01DX001 (ip), vehicle: Klucel (hydroxypropylcellulose) (HPC)
[25] = dose: 200.0 mg/kg/injection, schedule: Q01DX001 (ip), vehicle: Klucel (hydroxypropylcellulose) (HPC)
[26] = dose: 400.0 mg/kg/injection, schedule: Q01DX001 (ip), vehicle: Klucel (hydroxypropylcellulose) (HPC)
[27] = dose: 200.0 mg/kg/injection, schedule: Q01DX005 (ip), vehicle: Klucel (hydroxypropylcellulose) (HPC)
[28] = dose: 60.0 mg/kg/injection, schedule: Q01DX005 (ip), vehicle: saline

Measured: T/C

CCO/C([O-])=C(\C=N\[n+]1ccccc1C)c1ccccc1
inactive: [1] 109 % of control | [2] 110 % of control | [3] 109 % of control

C=C1C(=O)OC2C1CCC(C)=C1C(=O)C=C(C)C12 (stereo unspecified)
inactive: dose: 50.0 mg/kg/injection, schedule: Q04DX003 (ip), vehicle: saline with Tween-80 109 % of control | dose: 100.0 mg/kg/injection, schedule: Q04DX003 (ip), vehicle: saline with Tween-80 116 % of control | dose: 200.0 mg/kg/injection, schedule: Q04DX003 (ip), vehicle: saline with Tween-80 119 % of control

CCOC(=O)CC(=O)C(C)(OCC)OCC
active: [2] 157 % of control | [3] 190 % of control

CCC(=O)Sc1ccccc1C(=O)Nc1ccc(Cl)cc1
inactive: [4] 121 % of control and 86 % of control | [5] 97 % of control

CCC(C)NC(=O)C(C)O (stereo unspecified)
inactive: dose: 50.0 mg/kg/injection, schedule: Q01DX005 (ip), vehicle: saline 95 % of control | dose: 100.0 mg/kg/injection, schedule: Q01DX005 (ip), vehicle: saline 99 % of control | dose: 200.0 mg/kg/injection, schedule: Q01DX005 (ip), vehicle: saline 97 % of control

CCn1c2ccccc2c2cc(/C=N/Nc3cc(C)nc4cc5c(cc34)OCO5)ccc21
inactive: [6] 100 % of control | [7] 89 % of control

CCCCCCCN1CCS(=O)(=O)CC1
inactive: [8] 93 % of control | [9] 98 % of control | [10] 97 % of control

CCC(=O)NC(CC(C)C)C(=O)O (stereo unspecified)
inactive: dose: 12.5 mg/kg/injection, schedule: Q01DX009 (ip), vehicle: saline 111 % of control | dose: 25.0 mg/kg/injection, schedule: Q01DX009 (ip), vehicle: saline 95 % of control | [1] 89 % of control | [3] 107 % of control

COc1ccc(C(=O)N2C=CC(=Cc3ccccc3)C=C2)cc1
inactive: [11] 103 % of control | [12] 102 % of control | [13] 97 % of control

Nc1nc2ncn(COC(CO)CO)c2c(=O)[nH]1
inactive: [14] 100 % of control | dose: 120.0 mg/kg/injection, schedule: Q01DX005 (ip), vehicle: saline with Tween-80 98 % of control | [15] 100 % of control

COc1ccc(C2c3cc4c(cc3OC(N3CCCC3)C2C)OCO4)cc1 (stereo unspecified)
inactive: dose: 7.5 mg/kg/injection, schedule: Q01DX005 (ip), vehicle: saline with Tween-80 90 % of control | [16] 90 % of control | [17] 94 % of control | [15] 90 % of control

CC(=O)Nc1nc(=O)c2c(n1C(C)=O)N(C(C)=O)C(=O)C2
inactive: [18] 103 % of control | [19] 103 % of control | [20] 100 % of control

COc1nc(N=[N+]=[N-])nc(-c2c(OC)ccc3ccccc23)n1
inactive: dose: 25.0 mg/kg/injection, schedule: Q01DX005 (ip), vehicle: saline with Tween-80 105 % of control | [21] 96 % of control | [22] 89 % of control | [23] 89 % of control

NC(=O)C1C(=O)NC(=O)C1=O (stereo unspecified)
inactive: [16] 100 % of control | [17] 101 % of control | [14] 109 % of control and 114 % of control

O=C(CS(=O)(=O)c1ccccc1)CS(=O)(=O)c1ccccc1
inactive: [8] 96 % of control | [9] 98 % of control | [10] 99 % of control

COC(=O)/C(C#N)=C/Sc1ccccc1
inactive: dose: 100.0 mg/kg/injection, schedule: Q01DX001 (ip), vehicle: saline with Tween-80 101 % of control | dose: 200.0 mg/kg/injection, schedule: Q01DX001 (ip), vehicle: saline with Tween-80 98 % of control | dose: 400.0 mg/kg/injection, schedule: Q01DX001 (ip), vehicle: saline with Tween-80 97 % of control

CCC(=O)/C=C/c1cc(OC)c(OC)c(OC)c1
inactive: [24] 107 % of control | [25] 107 % of control | [26] 100 % of control

COc1ccc(/C=C2\SC(=S)N(C3CC3)C2=O)cc1OC
inactive: [6] 94 % of control | [7] 88 % of control

N#CSc1ccc2nc(NC(NC(=O)c3ccccc3)C(Cl)(Cl)Cl)sc2c1 (stereo unspecified)
inactive: [11] 102 % of control | [12] 108 % of control | [13] 101 % of control

O=[N+]([O-])c1ccc2oc([N+](=O)[O-])cc2c1
inactive: [6] 101 % of control | [7] 100 % of control | [27] 101 % of control

N/C(=N\OC(=O)NC(Cl)=C(Cl)Cl)c1cc(C(F)(F)F)cc(C(F)(F)F)c1
inactive: [21] 102 % of control | [22] 102 % of control | [23] 100 % of control

OCC(O)/C=C/c1ccccc1 (stereo unspecified)
inactive: [24] 95 % of control | [18] 96 % of control | [25] 103 % of control | [19] 90 % of control | [26] 108 % of control | [20] 99 % of control

C#CCNC1=CC(=O)CCC1
inactive: [28] 100 % of control | dose: 120.0 mg/kg/injection, schedule: Q01DX005 (ip), vehicle: saline 106 % of control | dose: 240.0 mg/kg/injection, schedule: Q01DX005 (ip), vehicle: saline 118 % of control

N#Cc1ccc(C(N)=O)c(C(N)=O)c1
inactive: [21] 98 % of control | [22] 102 % of control | [23] 93 % of control

CC(C)C1(c2ccccc2)C(=O)c2ccccc2C1=O
inactive: dose: 100.0 mg/kg/injection, schedule: Q04DX003 (ip), vehicle: saline 102 % of control | dose: 200.0 mg/kg/injection, schedule: Q04DX003 (ip), vehicle: saline 103 % of control | dose: 400.0 mg/kg/injection, schedule: Q04DX003 (ip), vehicle: saline 105 % of control

CC12CCC3C(CCC4C(C)(C)C(O)CCC34C)(C1)OC2CO (stereo unspecified)
inactive: dose: 2.25 mg/kg/injection, schedule: Q01DX009 (ip), vehicle: Klucel (hydroxypropylcellulose) (HPC) 104 % of control | dose: 4.5 mg/kg/injection, schedule: Q01DX009 (ip), vehicle: Klucel (hydroxypropylcellulose) (HPC) 108 % of control | dose: 9.0 mg/kg/injection, schedule: Q01DX009 (ip), vehicle: Klucel (hydroxypropylcellulose) (HPC) 104 % of control | dose: 18.0 mg/kg/injection, schedule: Q01DX009 (ip), vehicle: Klucel (hydroxypropylcellulose) (HPC) 118 % of control

Cc1cc(O)c(C=O)c2c1C(=O)Oc1c(COC(=O)/C=C/C(=O)O)c(O)c(C(=O)O)c(C)c1O2
inactive: dose: 0.25 mg/kg/injection, schedule: Q01DX009 (ip), vehicle: saline with Tween-80 104 % of control | dose: 0.5 mg/kg/injection, schedule: Q01DX009 (ip), vehicle: saline with Tween-80 96 % of control | dose: 1.0 mg/kg/injection, schedule: Q01DX009 (ip), vehicle: saline with Tween-80 101 % of control | [1] 90 % of control | [2] 90 % of control

O=C1CS(=O)(=O)C(c2ccccc2Cl)N1N1C(=O)CS(=O)(=O)C1c1ccccc1Cl (stereo unspecified)
inactive: [21] 96 % of control | [22] 90 % of control | [23] 89 % of control

CC(=O)[OH+]c1c(I)cc(I)cc1C(=O)[O-].CC(=O)[OH+]c1c(I)cc(I)cc1C(=O)[O-].[Cu+2]
inactive: dose: 15.0 mg/kg/injection, schedule: Q01DX005 (ip), vehicle: saline 106 % of control | dose: 30.0 mg/kg/injection, schedule: Q01DX005 (ip), vehicle: saline 92 % of control | [28] 106 % of control and 109 % of control

CC(=O)NS(=O)(=O)c1ccc(NN=Nc2ccccc2Cl)cc1
inactive: [6] 95 % of control | [7] 94 % of control | [27] 97 % of control

O=C1OC2CS(=O)CC2O1 (stereo unspecified)
inactive: dose: 50.0 mg/kg/injection, schedule: Q01DX009 (ip), vehicle: saline with Tween-80 104 % of control | [1] 102 % of control | [4] 101 % of control | [2] 101 % of control | [5] 95 % of control | [3] 99 % of control
